Results taken from patent publication US20230034660A1, “PEPTIDES THAT ENHANCE NMDA RECEPTOR FUNCTION AND USE THEREOF” (University of Pittsburgh - Of the Commonwealth System of …, priority 2019, published 2023).

Test system: AMPAR
Assay: AMPAR EPSCs in DCN cartwheel cells in brain slices, ZX1 potentiation
Type: cell-based, mice
Conditions: slices treated with peptide 3 μM; ZX1 100 μM; −70 mV
Method: Male and female mice (postpartum days 18-28) were anesthetized with isoflurane and sacrificed. Brains were rapidly dissected and sectioned into 210 μm thick coronal slices containing dorsal cochlear nucleus (DCN) on a vibratome (Leica, VT1000S). Slices were incubated in ACSF containing 130 mM NaCl, 3 mM KCl, 2.4 mM CaCl2, 1.3 mM MgCl2, 20 mM NaHCO3, 3 mM HEPES, and 10 mM glucose, saturated with 95% O2/5% CO2 (vol/vol), pH ˜7.3, ˜300 mOsm at 35° C. for 1 hour before being moved to room temperature. During preparation, ACSF was treated with Chelex 100 resin to remove any contaminating zinc. After applying Chelex to the ACSF, high-purity calcium and magnesium salts were added (99.995% purity). All plastic and glassware were washed with 5% high-purity nitric acid.
For brain slice recordings, whole-cell recordings of NMDAR EPSCs in slice DCN cartwheel cells were obtained with micropipettes (3-6 MΩ) containing 128 mM Cs(CH3O3S), 4 mM MgCl2·6H2O, 4 mM Na2ATP, 10 mM HEPES, 0.3 mM Tris-GTP, 10 mM Tris-phosphocreatine, 1 mM CsEGTA, 1 mM, QX-314, 3 mM sodium ascorbate, pH=˜7.2, 300 mOsm. […] NMDAR EPSCs were recorded in voltage clamp mode, at a holding potential of +40 mV, in the presence of DNQX (20 μM, AMPA and kainate receptor antagonist), SR95531. […] AMPA EPSCs were recorded in voltage clamp mode at a holding potential of −70 mV in the presence of SR9551. […]

| Sequence | ZX1 potentiation of AMPAR EPSCs [%] |
| --- | --- |
| NDSYLRSSL [Peptide N2AZ] | 29.3±6.70 |
| SNLSDSYDR [scN2AZ, reference compound] | 30.3±10.24 |
